The source of these data is publication PMC7415810, “A novel nucleolin-binding peptide for Cancer Theranostics” (Theranostics, 2020).

The test system of one experiment is MDA-MB-231-luc xenograft. Put plainly: Tumorigenesis experiment, MDA-MB-231-luc breast cancer xenograft. As to conditions: 16.68 mg/kg (molar equivalent to 2 mg/kg of PTX), tail vein twice a week, n = 5. Here is the method: All animal experiments were performed in accordance with IACUC guidelines (GIST-2019-040). For tumorigenesis experiments, anesthetized 6-week-old female NOD-scid Il2rg^-^/^- mice (NPG^TM, VITALSTAR) were inoculated in the mammary fat pad with 1 × 10^6 MDA-MB-231-luc cells in a 100 μl volume (n = 5 for each group). After tumor cell inoculation, when the tumor volume reached approximately 100 mm^3, the mice were randomly divided into the following five groups: (i) control, (ii) low-dose paclitaxel (2 mg/kg), (iii) high-dose paclitaxel (10 mg/kg), (iv) AGM-330 (16.68 mg/kg, molar equivalent to 2 mg/kg of PTX), and (v) AGM-330-PTX (19.05 mg/kg, molar equivalent to 2 mg/kg of PTX). The tumor size was measured twice a week, and the tumor volume was calculated with the following formula: volume (mm^3) = [length (mm)] × [width (mm)]^2 × 0.5. For the bioluminescent imaging experiment, D-luciferin (150 mg/kg; PerkinElmer) was intraperitoneally injected into each mouse, and an IVIS 100 imaging system (Xenogen, Corporation, Alameda, CA) was used for bioluminescent monitoring. Mice were anesthetized with vaporized isofurane (BK Pharm, Ilsan, Korea) and placed in an imaging chamber. After 10 min, each animal was imaged with an exposure time of 1 min. All bioluminescent image data were obtained using Living Image software (version 4.5.2, PerkinElmer). Photons detected from tumors were converted to average radiance values (photon/sec/cm^2/sr), which are quantitative data obtained from a region of […] (ROI) and include the photons emitted by bioluminescent cells from an assigned rectangular area over the whole body of each mouse.
A, Cell proliferation inhibition by AGM-330-PTX treatment was determined for 48 h by the WST assay in multiple breast and colorectal cancer cells and in normal cells. B, Schematic representation of the experimental protocol as described in the materials and methods section. Anesthetized 6‑week-old […] NPG mice were inoculated with a 1:1 mix of Matrigel and 1 × 10^6 MDA-MB-231-luc cells into the mammary fat pad. When the volume of primary tumors reached approximately 100 mm^3, tumor-bearing mice were treated with vehicle (PBS), PTX (2 or 10 mg/kg), AGM-330 (16.68 mg/kg, molar equivalent to 2 mg/kg of PTX), or AGM-330-PTX (19.05 mg/kg, molar equivalent to 2 mg/kg of PTX; n = 5/group). C-E, The therapeutic effect of AGM-330-PTX was evaluated in breast cancer xenograft models. C, Primary tumor volume was measured twice a week until the day of sacrifice. The primary tumor volume was calculated by the formula volume (mm^3) = (length (mm)) × (width (mm))^2 × 0.5. D, On the day of sacrifice, all primary tumors were isolated, and (E) the primary tumor weights were evaluated. F-I, Immunohistochemistry (IHC) sections of representative tumors with Ki-67 (F,H) and TUNEL (G,I) staining. Nuclei were stained with DAPI (blue). Scale bar, 50 µm. Bar graphs represent the mean ± SD, and statistical analyses were performed by one-way ANOVA with Dunnett's multiple comparison. *, **, and *** indicate P < 0.05, P < 0.01, and P < 0.001, respectively.
Following in vitro proliferation analysis on cancer lines, we investigated whether AGM-330-PTX could be a potential therapeutic agent in vivo. We inoculated MDA-MB-231-luc cells into the mammary fat pad of NPG mice. After the […] tumors grew to 100 mm^3, comparative efficacy studies were performed by dividing the animals into five groups (n = 5/group) treated with vehicle (PBS), PTX (2 or 10 mg/kg, respectively), AGM-330 (16.68 mg/kg, molar equivalent to 2 mg/kg of PTX), or AGM-330-PTX (19.05 mg/kg, molar equivalent to 2 mg/kg of PTX) twice a week by tail vein injection (Figure 5B). Tumor growth was monitored by measuring volumes twice a week with a caliber rule over the course of 3 weeks.
Figure S11. A-E, NPG TM mice bearing MDA-MB-231-luc tumors were treated twice a week for 21 days with […]

For another experiment, the system named is MDA-MB-231 cells. The experiment in a line: cells. As to conditions: read-out: IC50, MDA-MB-231 cells; 48 h treatment, WST-1. As for the experimental part:
(§1) Cancer and normal cells (1 × 10^4 cells/well) were seeded in 96-well plates, incubated for 24 h, and then treated with increasing concentrations of AGM-330, PTX, and AGM-330-PTX for 48 h. Cell viability was assessed by the CellVia WST-1 assay (Young In Frontier) according to the manufacturer's instructions. The numbers of viable cells were measured at a wavelength of 450 nm using a VersaMax ELISA plate reader (Molecular Devices, San Jose, CA, USA).
(§2) Figure S3. A-C, Cancer and normal cells (1 × 10^4 cells/well) were seeded in 96-well plates. After 24 h of incuba-tion, the cells were treated with an increasing concentration of dimeric or tetrameric AGM-330 for 48 h. The viability of cells grown in 0 % FBS (A), 5 % FBS (B) or 10 % FBS (C) was assessed by a CellVia WST-1 assay (Young In Frontier, Seoul, Korea) according to the manufacturer’s instruction. The numbers of viable cells were measured at a wavelength of 450 nm using an VersaMax ELISA plate reader (Molecular Devices). D, E, Binding specificity of AGM-330. A whole-cell binding assay was performed to determine the cell binding of AGM-330 in 1 % FBS (D) or 5 % FBS (E). Scale bar, 200 μm.
On the technique in general: Tetrazolium assays rely on reduction of a dye to a coloured formazan, in cell work by metabolically active cells.

The subject of another experiment is MCF-10A cells. The experiment in a line: cells. As to conditions: read-out: IC50, MCF-10A cells; 48 h treatment, WST-1. Here is the method:
as §1, §2

With `CSCC[C@H](NC(=O)[C@H](C)NC(=O)CNC(=O)[C@H](Cc1c[nH]cn1)NC(=O)[C@@H](N)CCCNC(=N)N)C(=O)N[C@H](C(=O)N[C@@H](Cc1ccc(O)cc1)C(=O)N[C@@H](CC(C)C)C(=O)N[C@@H](CCCCN)C(=O)NCCOCCOCCOCCOCCOCCOCCOCCOCCOCCOCCOCCOCCC(=O)NCCCC[C@H](NC(=O)CCOCCOCCOCCOCCOCCOCCOCCOCCOCCOCCOCCOCCNC(=O)[C@H](CCCCN)NC(=O)[C@H](CC(C)C)NC(=O)[C@H](Cc1ccc(O)cc1)NC(=O)[C@@H](NC(=O)[C@H](CCSC)NC(=O)[C@H](C)NC(=O)CNC(=O)[C@H](Cc1c[nH]cn1)NC(=O)[C@@H](N)CCCNC(=N)N)C(C)C)C(=O)NCCCC[C@H](NC(=O)[C@H](CCCCNC(=O)CCOCCOCCOCCOCCOCCOCCOCCOCCOCCOCCOCCOCCNC(=O)[C@H](CCCCN)NC(=O)[C@H](CC(C)C)NC(=O)[C@H](Cc1ccc(O)cc1)NC(=O)[C@@H](NC(=O)[C@H](CCSC)NC(=O)[C@H](C)NC(=O)CNC(=O)[C@H](Cc1c[nH]cn1)NC(=O)[C@@H](N)CCCNC(=N)N)C(C)C)NC(=O)CCOCCOCCOCCOCCOCCOCCOCCOCCOCCOCCOCCOCCNC(=O)[C@H](CCCCN)NC(=O)[C@H](CC(C)C)NC(=O)[C@H](Cc1ccc(O)cc1)NC(=O)[C@@H](NC(=O)[C@H](CCSC)NC(=O)[C@H](C)NC(=O)CNC(=O)[C@H](Cc1c[nH]cn1)NC(=O)[C@@H](N)CCCNC(=N)N)C(C)C)C(=O)N[C@@H](CS)C(=O)O)C(C)C` [AGM-330], in the experiment with MDA-MB-231-luc xenograft, the “average tumor volume versus vehicle (PBS)-treated mice” value is recorded as “no significant difference”. For the same compound, the 50% inhibitory concentration (IC50) in the experiment with MDA-MB-231 cells and in the experiment with MCF-10A cells was above 100 µM each time.
